According to patent US20240342201A1, “ASYMMETRIC GPR84 ANTAGONIST AND USE THEREOF” (priority 2021, published 2024):
Like-named read-outs stand apart in the source and are kept apart here.

Columns and labels:
[1] = test system: inflammatory bowel disease; conditions: trial terminated; cited from earlier work
[2] = Tissue distribution and oral exposure in ICR mice (LC-MS); type: in vivo; conditions: oral 5 mg/kg; for AUC(0-t): mouse
Description: The tissue distribution experiment of compounds XYF573c and LSX472a of the present invention in ICR mice was carried out, and their distribution in plasma and organs and oral exposure (AUC0-8h) were compared.
ICR mice were purchased from Shanghai Experimental Animal Research Center.
The concentrations of the compounds in plasma and various organs of ICR mice were detected by LC-MS.
During the experiment, the mice were fasted for more than 12 hours, had free access to water, and provided with food 2 hours after administration.
Both compounds XYF573c and LSX472a were administered orally, the dose was 5 mg/kg, and the solvent was DMSO/0.5% HPMC (5/95, v/v), N=3.
At 0.5 h, 2 h and 8 h after oral administration, about 20 μL of mouse heart blood, portal vein plasma or 20 mg of liver, lung, and ileum tissues were taken in clean centrifuge tubes, 200 μL of MeOH/ACN (50/50, v/v) was added and spun in a vortex mixer for 1 min. The mixtures were centrifuged at 15,000 rpm for 5 min and 20 μL of supernatants were mixed with 20 μL of ACN/water (1/1, v/v) and quantified by LC-MS.
The values of AUC0-8h were calculated by trapezoidal method based on the concentrations of the compound at 0.5 h, 2 h and 8 h.

[3] = molecular target: GPR84 (Homo sapiens, UniProt Q9NQS5); conditions: cited from earlier work
[4] = molecular target: GPR40 (Homo sapiens, UniProt O14842); conditions: cited from earlier work
[5] = molecular target: T1, GPR120 (Homo sapiens, UniProt Q5NUL3); conditions: cited from earlier work
T1 sequence (Q5NUL3 1-361): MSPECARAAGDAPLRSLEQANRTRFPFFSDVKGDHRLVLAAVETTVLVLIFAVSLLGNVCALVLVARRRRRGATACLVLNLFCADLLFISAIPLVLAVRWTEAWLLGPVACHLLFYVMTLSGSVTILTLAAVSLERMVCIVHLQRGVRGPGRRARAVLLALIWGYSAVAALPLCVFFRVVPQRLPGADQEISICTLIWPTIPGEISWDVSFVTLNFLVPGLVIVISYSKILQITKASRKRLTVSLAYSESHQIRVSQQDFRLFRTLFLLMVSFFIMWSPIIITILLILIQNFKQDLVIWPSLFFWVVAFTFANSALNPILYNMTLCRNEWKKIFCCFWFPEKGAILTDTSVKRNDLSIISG

GPR40, sequence (O14842 whole entry, species assumed): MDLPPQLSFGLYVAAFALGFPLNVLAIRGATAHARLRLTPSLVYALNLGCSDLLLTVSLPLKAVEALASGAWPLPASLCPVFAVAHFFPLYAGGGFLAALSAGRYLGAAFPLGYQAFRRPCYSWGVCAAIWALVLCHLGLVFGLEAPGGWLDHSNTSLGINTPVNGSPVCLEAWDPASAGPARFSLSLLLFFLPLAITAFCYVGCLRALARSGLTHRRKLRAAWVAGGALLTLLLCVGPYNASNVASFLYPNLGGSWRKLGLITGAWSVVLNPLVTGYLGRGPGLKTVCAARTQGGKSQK
GPR84, sequence (Q9NQS5 whole entry, species assumed): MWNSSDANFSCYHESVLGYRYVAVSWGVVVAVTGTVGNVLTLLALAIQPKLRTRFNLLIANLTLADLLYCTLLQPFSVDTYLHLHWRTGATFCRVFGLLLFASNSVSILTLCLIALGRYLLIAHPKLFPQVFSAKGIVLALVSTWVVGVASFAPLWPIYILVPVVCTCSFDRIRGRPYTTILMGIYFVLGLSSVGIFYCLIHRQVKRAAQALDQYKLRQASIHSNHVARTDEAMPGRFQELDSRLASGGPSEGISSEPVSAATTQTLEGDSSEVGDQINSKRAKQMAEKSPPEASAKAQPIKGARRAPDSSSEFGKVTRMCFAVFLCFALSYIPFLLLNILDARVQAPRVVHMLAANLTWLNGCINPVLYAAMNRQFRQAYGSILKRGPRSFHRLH

In the case of `O=c1nc(OC[C@@H]2COCCO2)cc2n1CCc1cc(C#CC3CC3)ccc1-2` [GLPG1205], the “efficacy in phase II clinical study versus placebo” value [1] is given as “lack of significant difference in efficacy from the placebo group”.

With `COc1cccc2c1Sc1ccccc1C=C2OP(=O)(O)O[C@@H]1C[C@@H]2CC[C@@]1(C)C2(C)C` [LSX472a] the AUC(0-t) ([2]; heart plasma, read-out: AUC0-8h, Heart plasma) was 7750 ng·h/mL, the AUC(0-t) ([2]; portal vein plasma, read-out: AUC0-8h, Portal vein plasma) was 8820 ng·h/mL and the “exposure in the intestinal tract (such as Ileum) compared to XYF573c” value [2] was “significantly increased”. For the same molecule, the “AUC0-8h, Ileum” value ([2]; ileum) was 62902.60 ng·h/g, the “AUC0-8h, Liver” value ([2]; liver) was 4387.83 ng·h/g and the “AUC0-8h, Lung” value ([2]; lung) was 745.34 ng·h/g. The “increase in oral exposure (Plasma AUC0-8h) compared to XYF573c” value ([2]; plasma) was 13 fold.

In the case of `CCCCCc1cc(CCCCC)cc(CC(=O)[O-])c1.[Na+]` [PBI-4547, 3,5-di-n-pentyl phenylacetate sodium], the “antagonistic activity on GPR84” value [3] is listed as “at the micromolar level”, the “agonistic activity on GPR40” value [4] is listed as “agonistic activity” and the “agonistic activity on GPR120” value [5] is listed as “agonistic activity”.
